According to patent US20130178463A1, “ENHANCED TRANSBUCCAL DRUG DELIVERY SYSTEM AND COMPOSITIONS” (Rutgers, The State University of New Jersey, priority 2010, published 2013):
Counter-ions that a name gives are not always drawn. Marks after values point to notes of the source that are not given here.

What was measured:
[1] = Histological study of buccal tissue (H&E, light microscopy); design: species or system porcine; conditions: after passive permeation (FIG. 6); light micrographs 40×
Method: The morphological changes in both untreated and treated buccal tissues were evaluated using light microscopy. Buccal membrane samples were sectioned carefully and fixed in 10% buffered formalin for 1 day at room temperature. […] This was followed by immersing in xylene at least three times, and finally embedding in Tissue-Tek O.C.T. compound under dry ice. […] The stained slices were examined under a Nikon Eclipse E 800 light microscope (Micro Optics, Cedar Knolls, N.J.) at 40×. A Nikon Digital Camera (Model DXM 1200) was used to capture images. Images were processed by SPOT™ Imaging Software, Version 5.0 (Diagnostic Instrument, Inc., Sterling Heights, Mich.).
A histological study was performed to evaluate the integrity of treated and untreated porcine tissues using standard H&E methodology.

[2] = In vitro transbuccal permeation of 0.5% ODAN.HCl gel with iontophoresis and/or chemical enhancers (Franz diffusion cells)
Method: Buccal mucosa samples with underlying connective tissue were surgically removed from the pig check area and stored under −30° C. for future use. Prior to use, the samples were thawed at room temperature for at least 3 hours. Then the underlying connective tissue was removed using a scalpel blade and the remaining buccal mucosa was then carefully trimmed using surgical scissors to a thickness of about 300-400 μm. The buccal tissues were placed in phosphate buffered saline (PBS) with pH 7.5 for 1 hour prior to use.
Franz diffusion cells (PermeGear, Hellertown, Pa.) were used for all in vitro permeation studies using buccal tissue under varying conditions: passive (control); 1 hour enhancer pretreatment, 8 hours iontophoresis (0.1, 0.2 and 0.3 mA); and combined treatment of 1 hour enhancer treatment and 8 hours iontophoresis at 0.3 mA, and then passive only up to 24 hrs. All permeation studies were performed at 37° C.
For passive permeation studies, the Franz cell receptor compartment was filled with PBS solution and stirred at 600 rpm. […] At different time points (0.0, 0.5, 1. 3, 5, 8, 12, 20, 24 hrs), 300 μl sample was withdrawn from receptor compartment for HPLC analysis and immediately replaced with 300 μl of PBS (pH=7.5).
For iontophoresis, a Phoresor II Auto—Iontophoresis Power Device (Model PM 850) Iomed, Inc., provided 0.1, 0.2 and 0.3 MA for 8 hrs of treatment. […] The cathode (AgCl) was inserted into the receptor compartment. After 8 hours, iontophoresis was discontinued and then the passive-only permeation continued for 16 hrs. The sampling method and time points were the same as for passive and chemical enhancer pretreatment experiments.
An 8 hour iontophoresis period is referred to herein as Stage I. A post −8 hour iontophoresis period, passive only permeation period is referred to herein as Stage II.
The cumulative drug amount in the receptor compartment after 8 hrs and 24 hrs was defined as Q8 and Q24 (μg cm^−2), respectively. The enhancement ratio (ER) for flux was calculated as follows:
Franz diffusion cells were used for all in vitro permeation studies using buccal tissue under varying conditions: passive (control), 1 hour enhancer pretreatment, 8 hrs. iontophoresis (0.1, 0.2 and 0.3 mA), and combined treatment of 1 hr. enhancer pretreatment and 8 hrs. iontophoresis at 0.3 mA, and then passive only up to 24 hrs. All permeation studies performed at 37° C. The procedure for passive permeation studies described above was followed.
The concentration of ODAN.HCl in the receptor compartment was analyzed by HPLC. […] A C18 column (150×4.6 mm C18 (2) 100 A Luna 5 μm, Phenomenex) with a guard column was used at 25° C.

[3] = In vitro transbuccal permeation of LHCl, NHT and DHCl gels (Franz diffusion cells); conditions: for Q8 / Flux: Transbuccal
Method: Buccal mucosa samples were harvested from pig's cheek area and placed below −30° C. The tissue samples were defrosted at room temperature first before use. Then a scalpel blade and a surgical scissor were used to remove the underlying connective tissue and trim the buccal mucosa to about 300 to 400 μm in thickness. Before each evaluation the buccal tissues were submerged in PBS (pH 7.5) for 1 hour.
Iontophoresis was terminated after 8 hour application.

[4] = In vitro transdermal permeation of LHCl, NHT and DHCl gels (Franz diffusion cells); conditions: for enhancement effect on transdermal delivery of NHT / enhancement effect on transdermal delivery of LHCl / enhancement effect on transdermal delivery of DHCl: in words, 1 hr. enhancer pretreatment, compared to control; for Flux / Q8: Transdermal
[5] = Physicochemical properties stated in the description; conditions: in words; reason for preparing solutions in PG only
[6] = in words; drug description; cited from earlier work
[7] = Stage II after 8 h iontophoresis 0.2 mA
[8] = in words, 1 hr. enhancer pretreatment, compared to control
[9] = Control (untreated passive), 8 h (Tables 19-21)
[10] = iontophoresis 0.3 mA for 8 h (Tables 19-21)
[11] = iontophoresis 0.3 mA for 8 h, listed as nicotine hydrogen tartrate, tartrate
[12] = iontophoresis 0.3 mA for 8 h, tartrate

From the text for EpiOral™ tissue: MTS 3-(4,5-dimethylthiazol-2-yl)-5-(3-carboxymethoxyphenyl)-2-(4-sulfophenyl)-2H-tetrazolium, inner salt) assay was used to evaluate enhancer cytotoxicity in buccal tissues. […] The number of surviving cells is directly proportional to the level of the formazan. The color can then be quantified at 490 nm using a Microplate Power Wave X Scanning Spectrophotometer (Bio-TEK Instruments, Inc., Winooski, Vt.).
EpiOral™ tissue (ORL-200) was used, which is a multilayered tissue mainly composed of an organized basal layer and multiple non-cornified layers analogous to native human buccal tissue. A 24-well plate containing ORL-200 (cell culture inserts) was stored in the refrigerator (4° C.) prior to use. […] After this, 100 μl of the reacted MTS solution from each well was pipetted into a marked 96-well microtiter plate for spectrophotometer reading (SPR) at 490 nm using Microplate Power Wave X Scanning Spectrophotometer (Bio-TEK Instruments, Inc., Winooski, Vt.). […] The EpiOral tissue % viability at each of the dosed concentrations was calculated using the following formula: […]
Dose response curve was established using a semi-log scale to plot % viability (linear y axis) vs. the dosing time (log x axis). […] All the SPR were deducted from blank readings for viability and ET-50 value final calculations. […]

In the case of `Cc1nccn1CC1CCc2c(c3ccccc3n2C)C1=O` (racemic) [ODAN•HCl, (±) 1,2,3,9-tetrahydro-9-methyl-3-[(2-methyl-1H-imidazol-1-yl)methyl]-4H-carbazol-4-one, monohydrochloride, dihydrate], the “morphology of buccal tissue compared to untreated” value [1] is reported as “no major morphological changes”, the Q8 ([2]; 0.5% ODAN.HCl gel, Stage I, Control (passive)) is reported as 25.5 ± 5.1 µg/cm² and the Flux ([2]; 0.5% ODAN.HCl gel, Stage I, iontophoresis 0.1 mA) is reported as 10.6 ± 4.5^b μg/cm^2/h. The Flux ([2]; 0.5% ODAN.HCl gel, Stage I, iontophoresis 0.2 mA) was 16.5 ± 6.5^b μg/cm^2/h, the Flux ([2]; 0.5% ODAN.HCl gel, Stage I, iontophoresis 0.3 mA) was 22.8 ± 4.6^b μg/cm^2/h and the ER ([2]; Stage I, Control (reference)) was 1. The Q8 ([2]; Stage I, iontophoresis 0.1 mA) was 83.3 ± 33.5 µg/cm², the ER ([2]; Stage I, iontophoresis 0.1 mA, flux vs control) was 3.3 and the Q8 ([2]; Stage I, iontophoresis 0.2 mA) was 133 ± 50.1 µg/cm². It also gave an ER ([2]; Stage I, iontophoresis 0.2 mA, flux vs control) of 5.2, a Q8 ([2]; Stage I, iontophoresis 0.3 mA) of 190 ± 42.7 µg/cm² and an ER ([2]; Stage I, iontophoresis 0.3 mA, flux vs control) of 7.1. For the same molecule, the Flux ([2]; Stage II (8-24 h, passive) after 8 h iontophoresis 0.1 mA) was 13.7 ± 4.3^b μg/cm^2/h, the Q24 ([2]; Stage II after 8 h iontophoresis 0.1 mA) was 297 ± 90.1 µg/cm² and the ER ([2]; Stage II after 8 h iontophoresis 0.1 mA, flux vs control) was 2.8. For the same molecule, the Flux [2, 7] was 12.7 ± 5.3^b μg/cm^2/h, the Q24 [2, 7] was 337 ± 130 µg/cm² and the ER ([2]; Stage II after 8 h iontophoresis 0.2 mA, flux vs control) was 2.6. It also gave a Q24 ([2]; Stage II after 8 h iontophoresis 0.3 mA) of 380 ± 68.1 µg/cm², an ER ([2]; Stage II after 8 h iontophoresis 0.3 mA, flux vs control) of 2.4 and a Flux ([2]; Stage II after 8 h iontophoresis 0.3 mA, listed as ODAN.HCl, monohydrochloride, dihydrate) of 11.9 μg/cm^2/h. For the same molecule, the Flux ([2]; Stage II after 8 h iontophoresis 0.3 mA, monohydrochloride, dihydrate) was 11.9 ± 2.3^b μg/cm^2/h, the Q24 ([2]; Stage II, Control (passive)) was 105 ± 22.8 µg/cm² and the ER ([2]; Stage II, Control (reference)) was 1.

In the case of `CCCCCCCCCCCCN1CCCCCC1=O` [Azone, 1-Dodecylazacycloheptan-2-one], the “enhancement effect on transbuccal delivery of NHT” value [3, 8] is reported as “no enhancement effect” and the “enhancement effect on transdermal delivery of NHT” value [4] is reported as “no enhancement effect”.

In the case of `CS(C)=NC(=O)c1ccc(Br)cc1` [Br-iminosulfurane], the aqueous solubility [5] is reported as “low aqueous solubilities”, the “enhancement effect on transbuccal delivery of LHCl” value [3, 8] is reported as “enhanced” and the “enhancement effect on transbuccal delivery of NHT” value [3, 8] is reported as “no enhancement effect”. For the same molecule, the “enhancement effect on transdermal delivery of LHCl” value [4] was “enhanced” and the “enhancement effect on transdermal delivery of NHT” value [4] was “no enhancement effect”.

In the case of `CCCCCCCCCCCCOC(=O)C(C)N(C)C` (stereo not shown) [DDAIP, dodecyl 2-(N,N dimethylamino) propionate], the aqueous solubility [5] is reported as “low aqueous solubilities”, the “effectiveness in enhancing ODAN.HCl permeability across porcine buccal tissues” value ([2]; in words, summary of Example 6) is reported as “only marginally effective” and the “enhancement effect on transbuccal delivery of DHCl” value [3, 8] is reported as “had enhancement effect”. For the same molecule, the “enhancement effect on transbuccal delivery of LHCl” value [3, 8] was “had enhancement effect”, the “enhancement effect on transdermal delivery of DHCl” value [4] was “had enhancement effect” and the “enhancement effect on transdermal delivery of LHCl” value [4] was “had enhancement effect”. For the same molecule, the “enhancement effect on transdermal delivery of NHT” value [4] was “no enhancement effect”.

With `CCCCCCCCCCCCOC(=O)C(C)N(C)C.Cl` (stereo not shown) [DDAIP.HCl, dodecyl-2-N,N-dimethylaminopropionate hydrochloride] the “effect on viability of EpiOral tissue compared to water” value (EpiOral™ tissue) was “did not reduce the viability”, the “enhancement effect on transdermal delivery of DHCl” value [4] was “no enhancement effect” and the “enhancement effect on transdermal delivery of LHCl” value [4] was “no enhancement effect”. For the same molecule, the “enhancement effect on transdermal delivery of NHT” value [4] was “no enhancement effect”.

In the case of `COc1ccc([C@@H]2Sc3ccccc3N(CCN(C)C)C(=O)[C@@H]2OC(C)=O)cc1` [Diltiazem HCl, 1,5-Benzothiazepin-4(5H) one, 3-(acetyloxy)-5-[2-(dimethylamino)ethyl]-2,3-dihyro-2-(4-methoxyphenyl)-, monohydrochloride, (+)-cis-], the solubility [6] is given as “soluble in water, methanol, and chloroform”.

For `CCN(CC)CC(=O)Nc1c(C)cccc1C` [Lidocaine HCl, 2-(Diethylamino)-2′,6′-acetoxylidide mono-hydrochloride, monohydrate], the Q8 [3, 9] was 345.6 ± 74.3^ μg/cm^2, the Flux ([3]; Control (untreated passive), 8 h, […] LHCl, 2% NHT or 2% DHCl gel, listed as lidocaine HCl, mono-hydrochloride, monohydrate) was 44.7 ± 9.6 μg/cm^2*h and the Flux ([3]; iontophoresis 0.1 mA for 8 h) was 137.1 ± 13.1^b μg/cm^2*h. For the same molecule, the Q8 [3, 10] was 1910.2 ± 454.7^b μg/cm^2, the Flux ([3]; iontophoresis 0.3 mA for 8 h, listed as lidocaine HCl, mono-hydrochloride, monohydrate) was 241.7 ± 60.5^c μg/cm^2*h and the Flux ([3]; iontophoresis 0.3 mA for 8 h, mono-hydrochloride, monohydrate) was 241.7 ± 60.5^b μg/cm^2*h.

For `CN1CCCC1c1cccnc1.O=C(O)C(O)C(O)C(=O)O` (stereo not shown) [Nicotine Hydrogen Tartrate, Nicotine hydrogen tartrate], the solubility [6] is listed as “soluble in water”, the Q8 [3, 9] is listed as 6.9 ± 2.6^ μg/cm^2 and the Flux ([3]; Control (untreated passive), 8 h, […] LHCl, 2% NHT or 2% DHCl gel, listed as nicotine hydrogen tartrate, tartrate) is listed as 0.9 ± 0.4 μg/cm^2*h. The Flux ([3]; iontophoresis 0.1 mA for 8 h) was 17.6 ± 6.9^b μg/cm^2*h, the Q8 [3, 10] was 629.5 ± 276.8^b μg/cm^2 and the Flux [3, 11] was 81.7 ± 35.9^c μg/cm^2*h. For the same molecule, the Flux [3, 12] was 81.7 ± 35.9^b μg/cm^2*h, the Flux ([4]; Control (untreated passive), 8 h, […] LHCl, 2% NHT or 2% DHCl gel) was 1.3 ± 1.9 μg/cm^2*h and the Q8 ([4]; Control (untreated passive), 8 h, tartrate) was 9.9 ± 14.6 μg/cm^2. The Flux ([4]; iontophoresis 0.1 mA for 8 h) was 56.1 ± 11.4^b μg/cm^2*h, the Q8 ([4]; iontophoresis 0.1 mA for 8 h) was 433.2 ± 85.4^b μg/cm^2 and the Flux [4, 11] was 138.4 ± 72.3^c μg/cm^2*h. For the same molecule, the Q8 [4, 11] was 1326.6 ± 186.2^c μg/cm^2, the Flux [4, 12] was 138.4 ± 72.3^b μg/cm^2*h and the Q8 [4, 12] was 1326.6 ± 186.2^b μg/cm^2.
